# Reference: patent US10941157B2, “Pesticidal compositions and uses thereof” (Gilead Apollo, LLC, priority 2015, dated 2021)
# Where two headings read alike, the source gives them in different places.
# Experiments:
# Type in all cases: cell-based
# [1] = test system: Fusarium moniliforme (Fm); experiment: In vitro pathogen growth inhibition assay, Fm; conditions: Fusarium verticillioides
# How it was run: (§1)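 Spores in 17% V8 liquid medium, or 1.5 mm Rs mycelial plugs in ¼ PDB, incubated with compound; final concentration checked by OD600 for precipitation. OD readings at 24 and 48 h, blank-subtracted, plus visual ratings; value is concentration giving ≥90% growth inhibition.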
# Septoria tritici (St) = experiment: In vitro pathogen growth inhibition assay, St; conditions: Zymoseptoria tritici, 48 h
# How it was run: as §1
# [2] = test system: Phytophthora capsici (Pc); experiment: In vitro pathogen growth inhibition assay, Pc; conditions: 48 h
# How it was run: (§2)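 Value reported is the compound concentration reaching ≥90% growth inhibition, from OD readings at 24 and 48 h after blank subtraction, confirmed visually. Inoculum was spores diluted in 17% V8 medium, except Rs, using 1.5 mm mycelial plugs in ¼ PDB; actual compound concentration corrected via OD600.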
# Rhizoctonia solani (Rs) = experiment: In vitro pathogen growth inhibition assay, Rs (mycelial plugs); conditions: Rhizoctonia solani, 48 h
# How it was run: as §2
# Diplodia maydis (Dm) = experiment: In vitro pathogen growth inhibition assay, Dm; conditions: Stenocarpella maydis, 48 h
# How it was run: as §2
# [3] = test system: Collectotrichum graminicola (Cg); experiment: In vitro pathogen growth inhibition assay, Cg; conditions: 48 h
# How it was run: as §1
# Botrtyis cinerea (Bc) = experiment: In vitro pathogen growth inhibition assay, Bc; conditions: 48 h
# How it was run: as §1
# [4] = test system: Fusarium virguliforme (Fv); experiment: In vitro pathogen growth inhibition assay, Fv
# How it was run: as §2
# [5] = ≥90% inhibition, 48 hours vs 2% DMSO control, read-out: Compound Concentration (ppm) sufficient for ≥90% inhibition of growth, Fm
# [6] = ≥90% inhibition, 48 hours vs 2% DMSO control, read-out: Compound Concentration (ppm) sufficient for ≥90% inhibition of growth, St
# [7] = ≥90% inhibition, 48 hours vs 2% DMSO control, read-out: Compound Concentration (ppm) sufficient for ≥90% inhibition of growth, Pc
# [8] = ≥90% inhibition, mycelial plugs, 48 hours vs 2% DMSO control, read-out: Compound Concentration (ppm) sufficient for ≥90% inhibition of growth, Rs
# [9] = ≥90% inhibition, 48 hours vs 2% DMSO control, read-out: Compound Concentration (ppm) sufficient for ≥90% inhibition of growth, Dm
# [10] = ≥90% inhibition, 48 hours vs 2% DMSO control, read-out: Compound Concentration (ppm) sufficient for ≥90% inhibition of growth, Cg
# [11] = ≥90% inhibition, 48 hours vs 2% DMSO control, read-out: Compound Concentration (ppm) sufficient for ≥90% inhibition of growth, Bc
# [12] = ≥90% inhibition, 48 hours vs 2% DMSO control, read-out: Compound Concentration (ppm) sufficient for ≥90% inhibition of growth, Fv
# [13] = ≥90% growth inhibition, 48 hours, vs 2% DMSO control, read-out: Compound Concentration (ppm) sufficient for ≥90% inhibition of Fm
# [14] = ≥90% growth inhibition, 48 hours, vs 2% DMSO control, read-out: Compound Concentration (ppm) sufficient for ≥90% inhibition of St
# [15] = ≥90% growth inhibition, 48 hours, vs 2% DMSO control, read-out: Compound Concentration (ppm) sufficient for ≥90% inhibition of Pc
# [16] = ≥90% growth inhibition, mycelial plugs, 48 hours, vs 2% DMSO control, read-out: Compound Concentration (ppm) sufficient for ≥90% inhibition of Rs
# [17] = ≥90% growth inhibition, 48 hours, vs 2% DMSO control, read-out: Compound Concentration (ppm) sufficient for ≥90% inhibition of Dm
# [18] = ≥90% growth inhibition, 48 hours, vs 2% DMSO control, read-out: Compound Concentration (ppm) sufficient for ≥90% inhibition of Cg
# [19] = ≥90% growth inhibition, 48 hours, vs 2% DMSO control, read-out: Compound Concentration (ppm) sufficient for ≥90% inhibition of Bc
# [20] = ≥90% growth inhibition, 48 hours, vs 2% DMSO control, read-out: Compound Concentration (ppm) sufficient for ≥90% inhibition of Fv
# [21] = concentration sufficient to ≥90% inhibition of growth, 48 hours vs 2% DMSO control, read-out: Compound Concentration (ppm) for ≥90% inhibition, Fm
# [22] = concentration sufficient to ≥90% inhibition of growth, 48 hours vs 2% DMSO control, read-out: Compound Concentration (ppm) for ≥90% inhibition, St
# [23] = concentration sufficient to ≥90% inhibition of growth, 48 hours vs 2% DMSO control, read-out: Compound Concentration (ppm) for ≥90% inhibition, Pc
# [24] = concentration sufficient to ≥90% inhibition of growth, 48 hours vs 2% DMSO control, read-out: Compound Concentration (ppm) for ≥90% inhibition, Rs
# [25] = concentration sufficient to ≥90% inhibition of growth, 48 hours vs 2% DMSO control, read-out: Compound Concentration (ppm) for ≥90% inhibition, Dm
# [26] = concentration sufficient to ≥90% inhibition of growth, 48 hours vs 2% DMSO control, read-out: Compound Concentration (ppm) for ≥90% inhibition, Cg
# [27] = concentration sufficient to ≥90% inhibition of growth, 48 hours vs 2% DMSO control, read-out: Compound Concentration (ppm) for ≥90% inhibition, Bc
# [28] = concentration sufficient to ≥90% inhibition of growth, 48 hours vs 2% DMSO control, read-out: Compound Concentration (ppm) for ≥90% inhibition, Fv
smiles,measurement,setting,value
COc1ccc(F)cc1[C@H](Cn1c(=O)n(C(C)(C)C(=O)NC(C)C)c(=O)c2c(C)c(-n3cccn3)sc21)OCCO [Compound I-129],IC90,[1]; [5],0.4 µg/mL
same,IC90,Septoria tritici (St); [6],> 50 µg/mL
same,IC90,[2]; [7],50 µg/mL
same,IC90,Rhizoctonia solani (Rs); [8],2 µg/mL
same,IC90,Diplodia maydis (Dm); [9],10 µg/mL
same,IC90,[3]; [10],2 µg/mL
same,IC90,Botrtyis cinerea (Bc); [11],2 µg/mL
same,IC90,[4]; [12],2 µg/mL
COc1ccc(F)cc1[C@H](Cn1c(=O)n(C(C)(C)C(=O)N2CCCC2)c(=O)c2c(C)c(-n3nccn3)sc21)OCCC#N [Compound I-195],IC90,[1]; [13],2 µg/mL
same,IC90,Septoria tritici (St); [14],> 50 µg/mL
same,IC90,[2]; [15],> 50 µg/mL
same,IC90,Rhizoctonia solani (Rs); [16],2 µg/mL
same,IC90,Diplodia maydis (Dm); [17],≥ 2 µg/mL
same,IC90,[3]; [18],2 µg/mL
same,IC90,Botrtyis cinerea (Bc); [19],2 µg/mL
same,IC90,[4]; [20],2 µg/mL
COc1ccc(F)cc1[C@H](Cn1c(=O)n(C(C)(C)C(=O)NC(C)C)c(=O)c2c(C)c(-n3nccn3)sc21)OCC(C)C [Compound I-026],IC90,[1]; [5],0.08 µg/mL
same,IC90,Septoria tritici (St); [6],≥ 2 µg/mL
same,IC90,[2]; [7],> 50 µg/mL
same,IC90,Rhizoctonia solani (Rs); [8],0.4 µg/mL
same,IC90,Diplodia maydis (Dm); [9],0.08 µg/mL
same,IC90,[3]; [10],0.08 µg/mL
same,IC90,Botrtyis cinerea (Bc); [11],0.4 µg/mL
same,IC90,[4]; [12],0.4 µg/mL
COc1ccc(F)cc1[C@H](Cn1c(=O)n(C(C)(C)C(=O)N2CCCC2)c(=O)c2c(C)c(-n3cccn3)sc21)OCCC#N [Compound I-203],IC90,[1]; [21],10 µg/mL
same,IC90,Septoria tritici (St); [22],> 50 µg/mL
same,IC90,[2]; [23],> 50 µg/mL
same,IC90,Rhizoctonia solani (Rs); [24],10 µg/mL
same,IC90,Diplodia maydis (Dm); [25],50 µg/mL
same,IC90,[3]; [26],50 µg/mL
same,IC90,Botrtyis cinerea (Bc); [27],50 µg/mL
same,IC90,[4]; [28],50 µg/mL
CCOC(=O)C(C)(C)n1c(=O)c2c(C)c(-n3nccn3)sc2n(C[C@H](OCCO)c2cc(F)ccc2OC)c1=O [Compound I-085],IC90,[1]; [5],0.08 µg/mL
same,IC90,Septoria tritici (St); [6],≥ 10 µg/mL
same,IC90,[2]; [7],> 50 µg/mL
same,IC90,Rhizoctonia solani (Rs); [8],0.08 µg/mL
same,IC90,Diplodia maydis (Dm); [9],0.4 µg/mL
same,IC90,[3]; [10],0.4 µg/mL
same,IC90,Botrtyis cinerea (Bc); [11],> 0.08 µg/mL
same,IC90,[4]; [12],0.4 µg/mL
CCOC(=O)c1sc2c(c1C)c(=O)n(C(C)(C)C(=O)NC(C)C)c(=O)n2CCc1cc(F)ccc1OCCC#N [Compound I-339],IC90,[1]; [13],2 µg/mL
same,IC90,Septoria tritici (St); [14],> 50 µg/mL
same,IC90,[2]; [15],> 50 µg/mL
same,IC90,Rhizoctonia solani (Rs); [16],50 µg/mL
same,IC90,Diplodia maydis (Dm); [17],> 50 µg/mL
same,IC90,[3]; [18],> 50 µg/mL
same,IC90,Botrtyis cinerea (Bc); [19],10 µg/mL
same,IC90,[4]; [20],2 µg/mL
COc1ccc(F)cc1[C@H](Cn1c(=O)n(C(C)(C)C(=O)NC(C)C)c(=O)c2c(C)c(-c3ncco3)sc21)OC(C)C [Compound I-018],IC90,[1]; [5],0.08 µg/mL
same,IC90,Septoria tritici (St); [6],> 10 µg/mL
same,IC90,[2]; [7],> 50 µg/mL
same,IC90,Rhizoctonia solani (Rs); [8],0.08 µg/mL
same,IC90,Diplodia maydis (Dm); [9],0.4 µg/mL
same,IC90,[3]; [10],0.4 µg/mL
same,IC90,Botrtyis cinerea (Bc); [11],0.4 µg/mL
same,IC90,[4]; [12],0.4 µg/mL
COCCOc1ccc(F)cc1[C@H](Cn1c(=O)n(C(C)(C)C(=O)NC(C)C)c(=O)c2c(C)c(-n3nccn3)sc21)OC1CCOCC1 [Compound I-076],IC90,[1]; [5],0.08 µg/mL
same,IC90,Septoria tritici (St); [6],≥ 10 µg/mL
same,IC90,[2]; [7],≥ 50 µg/mL
same,IC90,Rhizoctonia solani (Rs); [8],0.08 µg/mL
same,IC90,Diplodia maydis (Dm); [9],0.4 µg/mL
same,IC90,[3]; [10],0.4 µg/mL
same,IC90,Botrtyis cinerea (Bc); [11],2 µg/mL
same,IC90,[4]; [12],0.4 µg/mL
CCO[C@@H](Cn1c(=O)n(C(C)(C)C(=O)NC(C)C)c(=O)c2c(C)c(-n3cccn3)sc21)c1cc(F)ccc1OC [Compound I-125],IC90,[1]; [5],0.4 µg/mL
same,IC90,Septoria tritici (St); [6],> 50 µg/mL
same,IC90,[2]; [7],> 50 µg/mL
same,IC90,Rhizoctonia solani (Rs); [8],≥ 2 µg/mL
same,IC90,Diplodia maydis (Dm); [9],> 50 µg/mL
same,IC90,[3]; [10],≥ 2 µg/mL
same,IC90,Botrtyis cinerea (Bc); [11],2 µg/mL
same,IC90,[4]; [12],0.4 µg/mL
COc1ccc(F)cc1[C@H](Cn1c(=O)n([C@@H](C)C(=O)NC2CCC2)c(=O)c2c(C)c(-n3cccn3)sc21)OCCC#N [Compound I-312],IC90,[1]; [21],10 µg/mL
same,IC90,Septoria tritici (St); [22],> 50 µg/mL
same,IC90,[2]; [23],> 50 µg/mL
same,IC90,Rhizoctonia solani (Rs); [24],2 µg/mL
same,IC90,Diplodia maydis (Dm); [25],> 50 µg/mL
same,IC90,[3]; [26],> 50 µg/mL
same,IC90,Botrtyis cinerea (Bc); [27],> 50 µg/mL
same,IC90,[4]; [28],> 50 µg/mL
